Holding throughout (assay): relative viability (nuclei count vs DMSO), 5 days (fraction); higher = more cells survive
Compound in assay [1]: CC1=CN=C(N=C1C2=CNC(=C2)C(=O)N[C@H](CO)C3=CC(=CC=C3)Cl)NC4=C(C=C(C=C4)F)Cl [VX-11e] + CS(=O)(=O)CCNCc1ccc(-c2ccc3ncnc(Nc4ccc(OCc5cccc(F)c5)c(Cl)c4)c3c2)o1 [Lapatinib] (partner 2 µM)
The method in brief: (§1)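 The day after seeding in 1536-well plates, lung cancer cell lines were treated by pin tool with a single drug, or with a fixed anchor-drug dose together with five library-drug doses (not always all listed) in √10 steps. After 5 days, a combined fix-and-stain solution (final 0.05% Triton X-100, 1% formaldehyde, 1 ug/ml Hoechst) was added. Nuclei counted on 4× images gave relative viability as treated counts over vehicle counts, reported as the median of duplicate plates.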

Compound in assay [2]: CC1=CN=C(N=C1C2=CNC(=C2)C(=O)N[C@H](CO)C3=CC(=CC=C3)Cl)NC4=C(C=C(C=C4)F)Cl [VX-11e] + Nc1ncn([C@H]2C[C@H](O)[C@@H](CO)O2)c(=O)n1 [Decitabine] (partner 2 µM)
The method in brief: as §1

Compound in assay [3]: CC1=CN=C(N=C1C2=CNC(=C2)C(=O)N[C@H](CO)C3=CC(=CC=C3)Cl)NC4=C(C=C(C=C4)F)Cl [VX-11e] + O=C(c1cc(Cc2n[nH]c(=O)c3ccccc23)ccc1F)N1CCN(C(=O)C2CC2)CC1 [Olaparib] (partner 8 µM)
A digest of the protocol:
as §1

Compound in assay [4]: CC1=CN=C(N=C1C2=CNC(=C2)C(=O)N[C@H](CO)C3=CC(=CC=C3)Cl)NC4=C(C=C(C=C4)F)Cl [VX-11e] + CCNC(=O)c1noc(-c2cc(C(C)C)c(O)cc2O)c1-c1ccc(CN2CCOCC2)cc1 [Luminespib] (partner 0.01 µM)
The method in brief: as §1

This note sets out measurements from the supplement of paper PMC10307832.

Consider NCI-H1915, for which the relative viability was 0.981 in assay [1] (first compound 0.04 µM); 0.92 in assay [1] (first compound 0.1265 µM); 0.984 in assay [1] (first compound 0.4 µM); 0.976 in assay [1] (first compound 1.265 µM); 0.808 in assay [1] (first compound 4 µM); 0.246 in assay [2] (first compound 0.04 µM). For the same cell line, the relative viability worked out at 0.264 in assay [2] (first compound 0.1265 µM); 0.25 in assay [2] (first compound 0.4 µM); 0.264 in assay [2] (first compound 1.265 µM); 0.238 in assay [2] (first compound 4 µM); 0.277 in assay [3] (first compound 0.04 µM); 0.23 in assay [3] (first compound 0.1265 µM). Besides, the relative viability amounted to 0.305 in assay [3] (first compound 0.4 µM); 0.225 in assay [3] (first compound 1.265 µM); 0.231 in assay [3] (first compound 4 µM); 0.821 in assay [4] (first compound 0.04 µM); 0.737 in assay [4] (first compound 0.1265 µM); 0.851 in assay [4] (first compound 0.4 µM). The figures for the relative viability in assay [4] (first compound 1.265 µM) and in assay [4] (first compound 4 µM) were 0.773 and 0.59, respectively.
As to NCI-H1734, the relative viability in assay [1] (first compound 0.04 µM) came to 0.808; in assay [1] (first compound 0.1265 µM) it was 1.05; in assay [1] (first compound 0.4 µM) it was 0.745; in assay [1] (first compound 1.265 µM), 0.805; in assay [1] (first compound 4 µM), 0.46; in assay [2] (first compound 0.04 µM), 0.482. Also, the relative viability stood at 0.523 in assay [2] (first compound 0.1265 µM); 0.428 in assay [2] (first compound 0.4 µM); 0.538 in assay [2] (first compound 1.265 µM); 0.368 in assay [2] (first compound 4 µM); 0.632 in assay [3] (first compound 0.04 µM); 0.601 in assay [3] (first compound 0.1265 µM). The relative viability in assay [3] (first compound 0.4 µM) is 0.607; in assay [3] (first compound 1.265 µM) it was 0.542; in assay [3] (first compound 4 µM), 0.365; in assay [4] (first compound 0.04 µM), 0.203; in assay [4] (first compound 0.1265 µM), 0.21; in assay [4] (first compound 0.4 µM), 0.269. Also, the relative viability in assay [4] (first compound 1.265 µM) worked out at 0.205; in assay [4] (first compound 4 µM), 0.163.
On to NCI-H2342, for which the relative viability in assay [2] (first compound 0.1265 µM) stood at 0.797; in assay [2] (first compound 0.4 µM), 0.752; in assay [2] (first compound 1.265 µM) it was 0.787; in assay [2] (first compound 4 µM), 0.6; in assay [3] (first compound 0.1265 µM), 0.476; in assay [3] (first compound 0.4 µM), 0.414. Further, the relative viability in assay [3] (first compound 1.265 µM) was found to be 0.471; in assay [3] (first compound 4 µM) it was 0.367; in assay [4] (first compound 0.04 µM) it was 0.79; in assay [4] (first compound 0.1265 µM), 0.76; in assay [4] (first compound 0.4 µM) it was 0.558; in assay [4] (first compound 1.265 µM), 0.617. Besides, in assay [4] (first compound 4 µM), the relative viability stood at 0.747.
With COR-L 105, the relative viability in assay [1] (first compound 0.04 µM) was 0.354; in assay [1] (first compound 0.1265 µM), 0.324; in assay [1] (first compound 0.4 µM), 0.396; in assay [1] (first compound 1.265 µM), 0.355; in assay [1] (first compound 4 µM), 0.381; in assay [2] (first compound 0.04 µM) it was 0.685. Also, the relative viability came to 0.701 in assay [2] (first compound 0.1265 µM); 0.712 in assay [2] (first compound 0.4 µM); 0.705 in assay [2] (first compound 1.265 µM); 0.333 in assay [2] (first compound 4 µM); 0.666 in assay [3] (first compound 0.04 µM); 0.694 in assay [3] (first compound 0.1265 µM). The relative viability in assay [3] (first compound 0.4 µM) stood at 0.708; in assay [3] (first compound 1.265 µM), 0.839; in assay [3] (first compound 4 µM), 0.396; in assay [4] (first compound 0.04 µM) it was 0.978; in assay [4] (first compound 0.1265 µM), 0.391; in assay [4] (first compound 0.4 µM), 0.825. In addition, the relative viability in assay [4] (first compound 1.265 µM) amounted to 0.592; in assay [4] (first compound 4 µM), 0.375.
